# Assays:
# Type in all cases: functional
# Candida albicans [1] = test: Antifungal activity against Candida albicans CPCC400616 measured at 24 hrs by CLSI protocol based microbroth dilution method; settings: CPCC400616, 24 h
# Aspergillus fumigatus = test: Antifungal activity against Aspergillus fumigatus CGMCC 3.7795 measured at 72 hrs by CLSI protocol based microbroth dilution method; settings: CGMCC 3.7795, 72 h
# Cryptococcus neoformans = test: Antifungal activity against Cryptococcus neoformans CGMCC2.3161 measured at 72 hrs by CLSI protocol based microbroth dilution method; settings: CGMCC2.3161, 72 h
# [Candida] zeylanoides = Antifungal activity against Candida zeylanoides CGMCC2.3739 measured at 24 hrs by CLSI protocol based microbroth dilution method; settings: Dujonia zeylanoides, CGMCC2.3739, 24 h
# Candida albicans [2] = test: Antifungal activity against Candida albicans SC5314 incubated for 24 hrs by CLSI protocol based microbroth dilution method; settings: SC5314, 24 h
# Candida albicans [3] = test: Antifungal activity against fluconazole-resistant Candida albicans isolate 103 incubated for 24 hrs by CLSI protocol based microbroth dilution method; settings: isolate 103, 24 h
# Candida albicans [4] = test: Antifungal activity against fluconazole-resistant Candida albicans CaR incubated for 24 hrs by CLSI protocol based microbroth dilution method
# Candida albicans [5] = test: Antifungal activity against fluconazole-resistant Candida albicans isolate 17 incubated for 24 hrs by CLSI protocol based microbroth dilution method; settings: isolate 17, 24 h
# Candida albicans [6] = test: Antifungal activity against fluconazole-resistant Candida albicans isolate 100 incubated for 24 hrs by CLSI protocol based microbroth dilution method; settings: isolate 100, 24 h
SMILES,MIC90 (Candida albicans [1]),MIC90 (Aspergillus fumigatus),MIC90 (Cryptococcus neoformans),MIC90 ([Candida] zeylanoides),MIC90 (Candida albicans [2]),MIC90 (Candida albicans [3]),MIC90 (Candida albicans [4]),MIC90 (Candida albicans [5]),MIC90 (Candida albicans [6])
NNC(=S)NN,32 µg/mL,> 128 µg/mL,64 µg/mL,64 µg/mL,64 µg/mL,,,,
Cc1ccc2c(c1)/C(=N/NC(=S)Nc1ccccc1)CC[Se]2,64 µg/mL,> 128 µg/mL,16 µg/mL,> 128 µg/mL,64 µg/mL,,,,
Cc1ccc2c(c1)/C(=N/NC(=S)NN)CC[Se]2,8 µg/mL,> 128 µg/mL,4 µg/mL,> 128 µg/mL,8 µg/mL,,,,
CCc1ccccc1NC(=O)N/N=C1\CC[Se]c2ccc(C)cc21,64 µg/mL,> 128 µg/mL,4 µg/mL,16 µg/mL,64 µg/mL,,,,
COc1cccc(NC(=S)N/N=C2\CC[Se]c3ccc(C)cc32)c1,64 µg/mL,> 128 µg/mL,32 µg/mL,> 128 µg/mL,64 µg/mL,,,,
Cc1ccc2c(c1)/C(=N/NC(=O)Nc1cccc(Br)c1)CC[Se]2,> 128 µg/mL,> 128 µg/mL,> 128 µg/mL,> 128 µg/mL,> 128 µg/mL,,,,
O=C1CC[Se]c2ccc(F)cc21,16 µg/mL,> 128 µg/mL,> 128 µg/mL,> 128 µg/mL,4 µg/mL,,,,
COc1ccc(OC)c(NC(=S)N/N=C2\CC[Se]c3ccc(F)cc32)c1,8 µg/mL,64 µg/mL,4 µg/mL,4 µg/mL,2 µg/mL,4 µg/mL,4 µg/mL,2 µg/mL,2 µg/mL
COc1ccc(OC)c(NC(=S)N/N=C2\CC[Se]c3ccccc32)c1,8 µg/mL,> 128 µg/mL,2 µg/mL,32 µg/mL,4 µg/mL,,,,
Cc1ccc(NC(=S)N/N=C2\CC[Se]c3ccc(F)cc32)cc1,8 µg/mL,> 128 µg/mL,2 µg/mL,16 µg/mL,32 µg/mL,,,,
CCc1ccccc1NC(=O)NN,64 µg/mL,> 128 µg/mL,32 µg/mL,64 µg/mL,32 µg/mL,,,,
Cc1ccc(C)c(NC(=O)N/N=C2\CC[Se]c3ccc(F)cc32)c1,8 µg/mL,> 128 µg/mL,> 128 µg/mL,> 128 µg/mL,4 µg/mL,,,,
Cc1ccc(C)c(NC(=O)N/N=C2\CC[Se]c3ccc(C)cc32)c1,64 µg/mL,> 128 µg/mL,64 µg/mL,> 128 µg/mL,64 µg/mL,,,,
O=C(N/N=C1\CC[Se]c2ccc(F)cc21)Nc1cc(Cl)cc(Cl)c1,> 128 µg/mL,> 128 µg/mL,> 128 µg/mL,> 128 µg/mL,> 128 µg/mL,,,,
O=C1CC[Se]c2ccccc21,64 µg/mL,> 128 µg/mL,8 µg/mL,> 128 µg/mL,4 µg/mL,,,,
CCOc1ccc(NC(=O)N/N=C2\CC[Se]c3ccc(C)cc32)cc1,64 µg/mL,> 128 µg/mL,32 µg/mL,> 128 µg/mL,8 µg/mL,,,,
Cc1ccc(C)c(NC(=S)N/N=C2\CC[Se]c3ccc(F)cc32)c1,8 µg/mL,> 128 µg/mL,16 µg/mL,> 128 µg/mL,32 µg/mL,,,,
O=C(N/N=C1\CC[Se]c2ccc(F)cc21)Nc1ccccc1Cl,8 µg/mL,> 128 µg/mL,16 µg/mL,8 µg/mL,2 µg/mL,,,,
NNC(=S)Nc1ccccc1,64 µg/mL,> 128 µg/mL,64 µg/mL,> 128 µg/mL,> 128 µg/mL,,,,
NNC(=S)N/N=C1\CC[Se]c2ccc(F)cc21,2 µg/mL,> 128 µg/mL,4 µg/mL,64 µg/mL,4 µg/mL,2 µg/mL,8 µg/mL,8 µg/mL,4 µg/mL

SMILES,MIC90 (Candida albicans [1]),MIC90 (Aspergillus fumigatus),MIC90 (Cryptococcus neoformans),MIC90 ([Candida] zeylanoides),MIC90 (Candida albicans [2]),MIC90 (Candida albicans [3]),MIC90 (Candida albicans [4]),MIC90 (Candida albicans [5]),MIC90 (Candida albicans [6])
Cc1ccc2c(c1)C(=O)CC[Se]2,32 µg/mL,> 128 µg/mL,> 128 µg/mL,> 128 µg/mL,4 µg/mL,,,,
CCc1ccccc1NC(=O)N/N=C1\CC[Se]c2ccc(F)cc21,8 µg/mL,> 128 µg/mL,> 128 µg/mL,> 128 µg/mL,8 µg/mL,,,,
Fc1ccc2c(c1)/C(=N/NC(=S)Nc1ccccc1)CC[Se]2,0.25 µg/mL,> 128 µg/mL,2 µg/mL,8 µg/mL,2 µg/mL,0.5 µg/mL,2 µg/mL,2 µg/mL,0.5 µg/mL
S=C(N/N=C1\CC[Se]c2ccccc21)Nc1ccccc1,0.5 µg/mL,> 128 µg/mL,8 µg/mL,1 µg/mL,4 µg/mL,> 128 µg/mL,64 µg/mL,4 µg/mL,32 µg/mL
Cc1ccc(C)c(NC(=S)N/N=C2\CC[Se]c3ccccc32)c1,16 µg/mL,> 128 µg/mL,16 µg/mL,128 µg/mL,8 µg/mL,,,,
Cc1ccc2c(c1)/C(=N/NC(=O)Nc1ccccc1)CC[Se]2,64 µg/mL,> 128 µg/mL,8 µg/mL,16 µg/mL,4 µg/mL,,,,
Cc1ccc(NC(=S)N/N=C2\CC[Se]c3ccccc32)cc1,8 µg/mL,> 128 µg/mL,8 µg/mL,128 µg/mL,64 µg/mL,,,,
CCc1ccccc1NC(=O)N/N=C1\CC[Se]c2ccccc21,> 128 µg/mL,> 128 µg/mL,> 128 µg/mL,> 128 µg/mL,> 128 µg/mL,,,,
O=C(N/N=C1\CC[Se]c2ccc(F)cc21)Nc1cccc(Br)c1,16 µg/mL,> 128 µg/mL,16 µg/mL,> 128 µg/mL,64 µg/mL,,,,
Cc1ccc2c(c1)/C(=N/NC(=O)Nc1ccccc1Cl)CC[Se]2,64 µg/mL,> 128 µg/mL,64 µg/mL,> 128 µg/mL,32 µg/mL,,,,
Cc1ccc(NC(=S)N/N=C2\CC[Se]c3ccc(C)cc32)cc1,64 µg/mL,> 128 µg/mL,32 µg/mL,8 µg/mL,16 µg/mL,,,,
NNC(=S)N/N=C1\CC[Se]c2ccccc21,8 µg/mL,> 128 µg/mL,0.5 µg/mL,1 µg/mL,16 µg/mL,> 128 µg/mL,> 128 µg/mL,64 µg/mL,> 128 µg/mL
Cc1ccc(C)c(NC(=S)N/N=C2\CC[Se]c3ccc(C)cc32)c1,2 µg/mL,> 128 µg/mL,16 µg/mL,128 µg/mL,2 µg/mL,,,,
CCOc1ccc(NC(=O)N/N=C2\CC[Se]c3ccc(F)cc32)cc1,8 µg/mL,> 128 µg/mL,32 µg/mL,16 µg/mL,4 µg/mL,,,,
COc1ccc(OC)c(NC(=S)N/N=C2\CC[Se]c3ccc(C)cc32)c1,64 µg/mL,> 128 µg/mL,32 µg/mL,128 µg/mL,32 µg/mL,,,,
Cc1ccc2c(c1)/C(=N/NC(=O)Nc1cc(Cl)cc(Cl)c1)CC[Se]2,> 128 µg/mL,> 128 µg/mL,> 128 µg/mL,> 128 µg/mL,> 128 µg/mL,,,,
COc1cccc(NC(=S)N/N=C2\CC[Se]c3ccccc32)c1,16 µg/mL,> 128 µg/mL,4 µg/mL,2 µg/mL,16 µg/mL,,,,
COc1cccc(NC(=S)N/N=C2\CC[Se]c3ccc(F)cc32)c1,8 µg/mL,> 128 µg/mL,1 µg/mL,2 µg/mL,16 µg/mL,,,,
OC(Cn1cncn1)(Cn1cncn1)c1ccc(F)cc1F [FLUCONAZOLE],2 µg/mL,> 128 µg/mL,1 µg/mL,2 µg/mL,1 µg/mL,> 128 µg/mL,> 128 µg/mL,128 µg/mL,128 µg/mL
